Data published in patent US12174172B2, “Method for evaluating the efficacy of a composition in reducing the effects of cancer therapeutics on skin” (Johnson & Johnson Consumer Inc., priority 2019, dated 2024).
Several values for one entry are separate records, joined by “and”; a condition that tells them apart may be missing. Identical values can stand only once. Entries after “also recorded” stand apart in the source; their conditions may differ. Like-named read-outs stand apart in the source and are kept apart here. Marks after values point to notes of the source that are not given here.

What was measured:
[1] = most frequent cutaneous adverse reaction reported by the FDA Adverse Event Reporting System; cited from earlier work
involucrin (IVL) = test: 3D micro-epidermis model (EpiScreen): involucrin immunostaining; assay type: cell-based, human; details: for IVL expression: Table 1 summary; for activation at 0.1 µM: Homo sapiens, 72 h
Procedure: (§1) To assess the effects of such therapy molecules on the epidermis, keratinocytes were grown in the presence of kinase inhibitors during 3 days with high calcium concentration to induce keratinocyte differentiation and generate a 3D-stratified differentiated epidermis. Drug impact on the epidermis development was assessed via different keratinocyte markers including: • Ki-67, an universally expressed protein among proliferating cells and absent in the quiescent cells; • Filaggrin, a filament-associated protein that binds to keratin fibers and is a marker of terminal differentiation; • Desmoglein-1, a component of desmosomes and differentiation marker expressed in all epidermal layer above the basal layer; and • Involucrin, an early differentiation marker expressed in the spinous and granular layers and a protein precursor of the epidermal cornified envelope.
(§2) Human epidermal keratinocytes cells (HPEKs) from a juvenile donor (CellnTec, Switzerland) are cultured in flasks in proliferation medium. Keratinocytes are seeded at passage 6 into EpiScreen™ (Abzena, Cambridge, UK) plates containing collagen 1 coated disc micropatterns (CYTOO, Grenoble, France). Four hours later, unattached cells are washed off and a high calcium medium is added to induce keratinocytes differentiation. The day after, keratinocytes are treated with screening compounds, and Trichostatin A is added at 0.3 μM as an internal positive control. After three days of treatment, micro-epidermises are fixed with a formalin solution 10% for 30 minutes, then permeabilized with 0.1% Triton. Several immunostainings are performed: actin (Acti-Stain 555, PHDH1, Cytoskeleton), nuclei (Hoechst, H3570, Invitrogen), and one biomarker of interest per well either anti-involucrin (HPA055211, Sigma), anti-filaggrin (HPA030189, Sigma) or anti-desmoglein-1 (HPA022128, Sigma). Antibodies are added overnight at 4° C. before staining with secondary antibody, anti-rabbit 488 (711-545-152, Jackson) for 2 hours at room temperature.
(§3) Images of each well are acquired with the Operetta HCS platform (Perkin Elmer, Waltham, MA, USA) using a ×10 objective in confocal mode in eight z-planes from 2 μm to 44 μm in steps of 6 μm in each of the 3 channels: actin, nuclei, and one biomarker of interest. The first step of the image analysis consists in detecting micro-epidermis structures on the first z-plane by segmenting the actin staining. Micro-epidermis structures are validated based on several area and roundness min and max criteria. Then, the area of each biomarker staining is measured inside the valid micro-epidermis masks through each z-plane. For all homogeneous biomarker staining, their intensity through the different planes is measured.
(§4) The actin network of each micro-epidermis is analyzed in each z-plane in order to determine the average 3D structure edges. The biomarker intensity is measured in each z-plane for each structure, and then averaged with the other results generated in the same well. Based on the data generated in the two previous steps, an average 3D reconstruction image is generated. It consists of a meshwork that delimits the structure edges, and a color scaled volume that corresponds to the biomarkers distribution and expression.
The effect of 8 oncology molecules, selected from first generation EGFRi and pan-kinase inhibitors which mostly target VEGFR and second and third generation therapies targeting main mutations relating to first generation treatment resistance, were assessed in vitro using a 3D micro-epidermis model. […] The drug impact was assessed by analysis of tissue size and keratinocyte proliferation using Ki-67 staining and keratinocyte differentiation using filaggrin, desmoglein-1 and involucrin staining.
Size of the epidermis and the expression of the protein junction desmoglein-1 (DSG1), involucrin (IVL) and filaggrin (FLG) was assessed by immunostaining and compared to untreated control. […]

desmoglein-1 (DSG1) [2] = test: 3D micro-epidermis model (EpiScreen): desmoglein-1 immunostaining; assay type: cell-based, human; details: supplementary data, Tox = toxic
[3] = cited from earlier work; for Cmax: maximal plasma concentration after a single daily-recommended dose, human; for Unbound fraction: unbound to plasma protein; for Unbound concentration: unbound plasma concentration, identified or calculated from Cmax and unbound fraction
filaggrin (FLG) = test: 3D micro-epidermis model (EpiScreen): filaggrin immunostaining; assay type: cell-based, human; details: for activation at 0.01 µM / activation at 0.1 µM: Homo sapiens, 72 h; for FLG expression: Table 1 summary;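 on all read-outs here: human primary epidermal keratinocytes differentiated in high calcium into 3D micro-epidermises, compound-treated for three days, imaged by confocal high-content microscopy, filaggrin staining intensity quantified within actin-segmented structures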
[4] = system: Human epidermal keratinocytes cells (HPEKs), 3D micro-epidermis; test: 3D micro-epidermis model (EpiScreen): epidermis size, toxicity, dose response, classification; assay type: cell-based; details: for Dose in response: variation of protein expression at 3, 10, 30 nM (EGFRi) or 3, 10, 30, 100 nM (VEGFRi); for Dose in response / Dose/response: markers in brackets; for Dose/response: supplementary table, per run (1st or 2nd Run); for effect on desmoglein-1, involucrin and filaggrin expression (dose dependence): 3, 10, 30 nM;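 on all read-outs here: keratinocytes on micropatterned discs in high-calcium medium, drug exposure for three days, then fixation and confocal high-content imaging of actin, nuclei and a marker, vehicle DMSO-matched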
desmoglein-1 (DSG1) [5] = test: 3D micro-epidermis model (EpiScreen): desmoglein-1 immunostaining; assay type: cell-based, human; details: for activation at 0.01 µM / activation at 0.1 µM: Homo sapiens, 72 h; for activation at 0.01 µM: 10 nM, read-out: DSG 10 nM; for DSG-1 expression: Table 1 summary; for activation at 0.1 µM: read-out: DSG 100 nM
Procedure: as §1, §2, §3, §4
The effect of 8 oncology molecules, selected from first generation EGFRi and pan-kinase inhibitors which mostly target VEGFR and second and third generation therapies targeting main mutations relating to first generation treatment resistance, were assessed in vitro using a 3D micro-epidermis model. The drug incubation concentrations (3, 10, 30, 100 nM) were selected to reflect the clinically relevant (unbound) drug exposures (Table 2). The drug impact was assessed by analysis of tissue size and keratinocyte proliferation using Ki-67 staining and keratinocyte differentiation using filaggrin, desmoglein-1 and involucrin staining. […]

[6] = supplementary data, two runs, Tox = toxic
[7] = concentration (afatinib 3, 10, 30 nM; pan-kinase inhibitors 100 nM)
[8] = read-out: FLG 10 nM, 10 nM, supplementary data, two runs
[9] = Table 1 summary of drug effect on epidermis
[10] = Table 1 summary, pro-differentiation / pro-proliferation
[11] = Table 3, 30 nM (EGFRi) or 100 nM (VEGFRi), 3 days, vs untreated control, superscript = significance footnote
[12] = Table 3, pro-proliferation or pro-differentiation
[13] = 100 nM, supplementary data, two runs, Tox = toxic
[14] = 10 nM, supplementary data, two runs, read-out: FLG 10 nM
[15] = 100 nM, supplementary data, two runs, Tox = toxic, read-out: FLG 100 nM
[16] = 100 nM, supplementary data, Tox = toxic
[17] = 1 μM, supplementary data, two runs, Tox = toxic

SMILES | Major Skin Effect [1] | IVL 10 nM (involucrin (IVL); supplementary data, two runs) [%] | IVL expression (involucrin (IVL)) | Cmax [3] [nM] | Unbound fraction [3] | FLG expression (filaggrin (FLG)) | Epidermis size [4, 9] | Classification [4, 10] | Epidermis size [4, 11] | Classification [4, 12] | Dose in response ([4]; Table 3) | Dose/response [4] | activation at 0.01 µM (desmoglein-1 (DSG1) [5]; supplementary data) [%] | DSG-1 expression (desmoglein-1 (DSG1) [5]) | IVL 3 nM (involucrin (IVL); supplementary data) [%] | IVL 30 nM (involucrin (IVL); supplementary data) [%] | FLG 3 nM (filaggrin (FLG); supplementary data) [%] | FLG 30 nM (filaggrin (FLG); supplementary data) [%] | activation at 0.01 µM (filaggrin (FLG); [14]) [%] | effect on desmoglein-1, involucrin and filaggrin expression (dose dependence) [4] | also measured
CNC(=O)c1cc(Oc2ccc(NC(=O)Nc3ccc(Cl)c(C(F)(F)F)c3)cc2)ccn1 [Sorafenib] | Rash | 6 | Unchanged | 8180 | 0.29% | Decreased | Decreased | Pro-proliferation | Decreased^2 | Pro- | No | No | -8 | Unchanged |  |  |  |  |  |  | IVL 10 μM (involucrin (IVL); [6]): Tox; involucrin expression (involucrin (IVL); [7]): do not impact; DSG 10 μM (desmoglein-1 (DSG1) [2]): Tox; FLG 10 μM (filaggrin (FLG); [6]): Tox; activation at 0.01 µM (filaggrin (FLG); [8]): -22%; Toxicity at 1 μM ([4]; 1 μM, micro-epidermis): Yes; desmoglein-1 expression (desmoglein-1 (DSG1) [5]; [7]): do not impact
CS(=O)(=O)CCNCc1ccc(-c2ccc3ncnc(Nc4ccc(OCc5cccc(F)c5)c(Cl)c4)c3c2)o1 [Lapatinib] | Rash | 14 | Increased | 516 | 1%* | Increased | Decreased | Pro-differentiation | Unchanged^4 | Pro- | Yes | Yes (DSG, IVL, | 9.6 | Increased | 17 | 30 | 7 | 20 | 9 | dose-dependent manner | activation at 0.1 µM (involucrin (IVL); [13]): 48%; Unbound concentration [3]: 5.16* nM; activation at 0.1 µM (filaggrin (FLG); [15]): 18%; Toxicity at 1 μM [4]: Yes; DSG 3 nM (desmoglein-1 (DSG1) [5]; supplementary data): −6.20%; DSG 30 nM (desmoglein-1 (DSG1) [5]; supplementary data): 29%; activation at 0.1 µM (desmoglein-1 (DSG1) [5]; [16]): 47%
C#Cc1cccc(Nc2ncnc3cc(OCCOC)c(OCCOC)cc23)c1 [Erlotinib] | Papulo-pustular | 16 | Increased | 1600 | 5% | Increased | Decreased | Pro-differentiation | Decreased^1 | Pro- | No | No | -2 | Increased | 13 | 22 | 6 | 10 |  | did not affect | activation at 0.1 µM (involucrin (IVL); [13]): 35%; activation at 0.01 µM (filaggrin (FLG); [8]): 0%; activation at 0.1 µM (filaggrin (FLG); read-out: FLG 100 nM, 100 nM, supplementary data, two runs, Tox = toxic): 34%; Toxicity at 1 μM [4]: Yes; DSG 3 nM (desmoglein-1 (DSG1) [5]; supplementary data): −7%; DSG 30 nM (desmoglein-1 (DSG1) [5]; supplementary data): 1%; activation at 0.1 µM (desmoglein-1 (DSG1) [5]; [16]): 36%
CCN(CC)CCNC(=O)c1c(C)[nH]c(/C=C2\C(=O)Nc3ccc(F)cc32)c1C [Sunitinib] | Palmoplantar | 0 |  | 75 | 5%* |  |  |  |  |  |  |  | 15 |  |  |  |  |  | -5 |  | IVL 10 μM (involucrin (IVL); [6]): 24%; DSG 10 μM (desmoglein-1 (DSG1) [2]): 27%; FLG 10 μM (filaggrin (FLG); [6]): 101%; Toxicity at 1 μM ([4]; 1 μM, micro-epidermis): No; micro-epidermis size / epidermal volume ([4]; concentration (afatinib 3-30 nM; pan-kinase inhibitors up to 100 nM)): no effect
COc1cc2ncnc(Nc3ccc(F)c(Cl)c3)c2cc1NC(=O)/C=C/CN1CCCCC1 [Dacomitinib] | Rash | 31 | Increased | 178 | 0.24% | Increased | Decreased | Pro-differentiation | Unchanged^4 | Pro- | Yes | Yes (DSG, IVL, | 32 | Increased | 15 | 60 | 8 | 31 | 25 | dose-dependent manner | IVL 100 nM (involucrin (IVL); [13]): Tox; Unbound concentration [3]: 0.42 nM and 0.425* nM; FLG 100 nM (filaggrin (FLG); [13]): Tox; Toxicity at 1 μM ([4]; 1 μM, micro-epidermis): Yes; DSG 3 nM (desmoglein-1 (DSG1) [5]; supplementary data): 10.00%; DSG 30 nM (desmoglein-1 (DSG1) [5]; supplementary data): 54%; DSG 100 nM (desmoglein-1 (DSG1) [5]; [16]): Tox
C=CC(=O)Nc1cc(Nc2nccc(-c3cn(C)c4ccccc34)n2)c(OC)cc1N(C)CCN(C)C [Osimertinib] |  | 8 | Unchanged | 627 | 1.32%* | Unchanged | Unchanged | Unchanged | Unchanged^4 | Unchanged | No | No | -7 | Unchanged | 6 | 7 | −12 | 2 | -6 | did not affect | IVL 1 μM (involucrin (IVL); [17]): Tox; IVL 10 μM (involucrin (IVL); [6]): Tox; activation at 0.1 µM (involucrin (IVL); [13]): 20%; DSG 1 μM (desmoglein-1 (DSG1) [2]; 1 μM): Tox; DSG 10 μM (desmoglein-1 (DSG1) [2]): Tox; Unbound concentration [3]: 8.2764 nM; FLG 1 μM (filaggrin (FLG); [17]): Tox; FLG 10 μM (filaggrin (FLG); [6]): Tox; activation at 0.1 µM (filaggrin (FLG); [15]): 16%; impact on all measured parameters / epidermis development ([4]; micro-epidermis model): did not show any impact; also recorded: no impact; DSG 3 nM (desmoglein-1 (DSG1) [5]; supplementary data): −3%; DSG 30 nM (desmoglein-1 (DSG1) [5]; supplementary data): 7%; activation at 0.1 µM (desmoglein-1 (DSG1) [5]; [16]): 18%
